The text below walks through data of patent publication US20090053138A1, “Stabilized Aptamers to Platelet Derived Growth Factor and their Use as Oncology Therapeutics” (priority 2002, published 2009).

Strand notation (5' to 3'): a small letter for the sugar, then the base; units joined by * are phosphorothioate-linked, units joined directly phosphodiester-linked; [ ] holds rarer units or linkages, { } end groups; capitals alone tell only the bases. [invdT] = inverted (3'-3') thymidine; d = 2'-deoxy (DNA); m = 2'-O-methyl

One data set addresses T1, VEGF (Homo sapiens, UniProt P15692).
T1 sequence (P15692 27-191 isoform P15692-4): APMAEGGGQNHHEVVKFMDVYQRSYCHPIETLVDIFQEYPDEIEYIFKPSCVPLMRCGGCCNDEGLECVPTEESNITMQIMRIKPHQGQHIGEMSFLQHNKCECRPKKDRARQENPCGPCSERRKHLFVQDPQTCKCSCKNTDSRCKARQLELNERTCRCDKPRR
The data set is described as follows: Dot-blot binding assay, VEGF. As for the experimental part:
(§1) Binding data for the constituent aptamers and the multivalent aptamers were collected by dot-blot assays in which radio-labeled aptamer is incubated with protein target and then forced through a sandwich of nitrocellulose over nylon and the results shown in FIG. 22. Protein-associated radio-label is captured on the nitrocellulose membrane while the balance of the radio-label is captured on the nylon membrane. The radio-label data is collected on a phosphorimaging plate. […] The multivalent aptamers TK.131.012.A (SEQ ID NO. 9) and TK.131.012.B (SEQ ID NO. 10) were made synthetically.

The target in data set [1] is T2, PDGF BB (Homo sapiens, UniProt P01127). The data set is described as follows: ERK phosphorylation assay in 3T3 cells. Conditions: 10 ng/ml PDGF-BB, 30 minutes. It is filed as cell-based, mouse. Also noted: purchased R&D Systems, Minneapolis, Minn. As to the method: ERK phosphorylation was used to test whether ARC124 (SEQ ID NO:11) retained its functionality after the incorporation of CpG motifs into the aptamer sequence. One hundred and fifty thousand 3T3 cells (a mouse fibroblast cell line which contains PDGF-R) were plated into an appropriate number of wells on a 12 well plate one day prior to the experiment and serum starved in 0.5% FBS overnight. Cells were treated with 10 ng/ml PDGF-BB (R&D Systems, Minneapolis, Minn.) in the presence or absence of CpG-island containing PDGF aptamers for 30 minutes. […] Protein concentration in cell lysates was determined using BIO-RAD protein assay reagent according to manufacturer's recommendations (Bio-Rad, Hercules, Calif.). Lysates were prepared by adding NuPage LDS Sample Buffer 4× with 0.1M DTT to a final concentration of 1× (invitrogen, Carlsbad, Calif.) and incubated at 70° C. for 7 minutes. Forty micrograms of total protein was loaded into each well of a NuPage 10%, Bis-Tris gel (Invitrogen, Carlsbad, Calif.). The gel was run at 100 mAmp for 1 hour. Gel was then transferred to a HyBond ECL nitrocellulose membrane (Amersham, Piscataway, N.J.) at 250 mAmp for 3 hours. After transfer, the nitrocellulose was blocked with 5% BSA (Sigma, St. Louis, Mo.) in PBS for one hour at room temperature. The nitrocellulose membrane was incubated with a p44/42 MAP Kinase antibody overnight at 4° C. […]
T2 sequence (P01127 82-190 limits assumed): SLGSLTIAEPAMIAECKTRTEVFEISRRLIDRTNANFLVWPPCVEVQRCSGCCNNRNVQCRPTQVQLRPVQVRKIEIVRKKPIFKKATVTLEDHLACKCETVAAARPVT

Data set [2] addresses T2, PDGF BB. The data set is described as follows: Dot-blot binding assay, PDGF BB. As for the experimental part: as §1

As a reminder, the Kd is the constant that tells how readily two partners part at equilibrium. The substance “5′-mAmUmGmCmAmGmUmUmUmGmAmGmAmAmGmUmCmGmCmGmCmAmU-[3T]-3′ (SEQ ID NO: 7) (AUGCAGUUUGAGAAGUCGCGCAU; all 2'-O-methyl, [invdT] at 3' end, backbone not given here) [ARC245]” yielded a Kd in the data set with VEGF of approximately 2 nM. With “CpGARC124short: PDGF aptamer ARC124 with CpG motif appended (SEQ ID NO:20) (AACGTTCGAGCAGGCTACGGCACGTAGAGCATCACCATGATCCTGC; synthetic aptamer; (1)..(11) phosphorothiate backbone between nucleotides 1-11; (44)..(46) phosphorothiate backbone between nucleotides 44-46)”, the “phosphorylation of ERK” value with PDGF BB [1] is reported as “can block phosphorylation of ERK”.

For the substance “LongCpGARC124: PDGF aptamer ARC124 with CpG motif appended (SEQ ID NO:21) (dG*dT*dG*dA*dA*dC*dG*dT*dT*dC*dG*dA*dG*dCdAdGdGdCdTdAdCdGdGdCdAdCdGdTdAdGdAdGdCdAdTdCdAdCdCdAdTdGdAdTdCdCdT*dG*dC[invdT]; further chemistry not fully specified)”, in the data set with PDGF BB [1], the “phosphorylation of ERK” value is reported as “can block phosphorylation of ERK”.

As to “TK.131.012.A: PDGF/VEGF binding multivalent aptamer (SEQ ID NO:9) (CAGGCTACGAUGCAGUUUGAGAAGUCGCGCAUCGTAGAGCATCAGAAATGATCCTG; sugars from the 5' end d9 m23 d24, 3' [invdT], backbone not given here; further chemistry not fully specified)”, the Kd with PDGF BB [2] and with VEGF was approximately 10 nM throughout. “TK.131.012.B: PDGF/VEGF binding multivalent aptamer (SEQ ID NO: 10) (CAGGCTACGUGCAGUUUGAGAAGUCGCGCACGTAGAGCATCAGAAATGATCCTG; sugars from the 5' end d9 m21 d24, 3' [invdT], backbone not given here; further chemistry not fully specified)”: the Kd in the data set with PDGF BB [2] was approximately 10 nM; with VEGF it was approximately 5 nM.
